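Cells were grown in 96-well plates and exposed to each compound for 48 hours at five concentrations; endpoints were interpolated linearly between bracketing concentrations, or set to the highest concentration if not reached. The concentration for 50% growth inhibition is given as GI50. TGI denotes the concentration required for complete inhibition of growth.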
What was measured:
Experiment in all cases: NCI-60 cell line screen, 48 h; in the data active means GI50 below about 0.43 µM; inactive means the rest
786-0 renal = tested on: 786-0 renal
A498 renal = tested on: A498 renal
A549 NSCLC = tested on: A549 NSCLC
ACHN renal = tested on: ACHN renal
BT-549 breast = tested on: BT-549 breast
CCRF-CEM leukemia = tested on: CCRF-CEM leukemia
COLO 205 colon = tested on: COLO 205 colon
DU-145 prostate = tested on: DU-145 prostate
EKVX NSCLC = tested on: EKVX NSCLC
HCC-2998 colon = tested on: HCC-2998 colon
HCT-116 colon = tested on: HCT-116 colon
HCT-15 colon = tested on: HCT-15 colon
HL-60(TB) leukemia = tested on: HL-60(TB) leukemia
HOP-62 NSCLC = tested on: HOP-62 NSCLC
HOP-92 NSCLC = tested on: HOP-92 NSCLC
HS 578T breast = tested on: HS 578T breast
HT29 colon = tested on: HT29 colon
IGROV1 ovarian = tested on: IGROV1 ovarian
K-562 leukemia = tested on: K-562 leukemia
KM12 colon = tested on: KM12 colon
LOX IMVI melanoma = tested on: LOX IMVI melanoma
M14 melanoma = tested on: M14 melanoma
MALME-3M melanoma = tested on: MALME-3M melanoma
MCF7 breast = tested on: MCF7 breast
MDA-MB-231 breast = tested on: MDA-MB-231 breast
MDA-MB-435 = tested on: MDA-MB-435
MDA-N = tested on: MDA-N
MOLT-4 leukemia = tested on: MOLT-4 leukemia
NCI-H226 lung = tested on: NCI-H226 lung
NCI-H23 lung = tested on: NCI-H23 lung
NCI-H460 lung = tested on: NCI-H460 lung
NCI/ADR-RES ovarian = tested on: NCI/ADR-RES ovarian
OVCAR-3 ovarian = tested on: OVCAR-3 ovarian
OVCAR-5 ovarian = tested on: OVCAR-5 ovarian
OVCAR-8 ovarian = tested on: OVCAR-8 ovarian
PC-3 prostate = tested on: PC-3 prostate
RXF 393 renal = tested on: RXF 393 renal
SF-268 CNS = tested on: SF-268 CNS
SF-539 CNS = tested on: SF-539 CNS
SK-MEL-28 melanoma = tested on: SK-MEL-28 melanoma
SK-MEL-5 melanoma = tested on: SK-MEL-5 melanoma
SK-OV-3 ovarian = tested on: SK-OV-3 ovarian
SN12C renal = tested on: SN12C renal
SNB-19 CNS = tested on: SNB-19 CNS
SNB-75 CNS = tested on: SNB-75 CNS
SR leukemia = tested on: SR leukemia
SW-620 colon = tested on: SW-620 colon
T-47D breast = tested on: T-47D breast
TK-10 renal = tested on: TK-10 renal
U251 CNS = tested on: U251 CNS
UACC-257 melanoma = tested on: UACC-257 melanoma
UACC-62 melanoma = tested on: UACC-62 melanoma
UO-31 renal = tested on: UO-31 renal
CAKI-1 renal = tested on: CAKI-1 renal
NCI-H522 lung = tested on: NCI-H522 lung
OVCAR-4 ovarian = tested on: OVCAR-4 ovarian
RPMI-8226 leukemia = tested on: RPMI-8226 leukemia
SF-295 CNS = tested on: SF-295 CNS
SK-MEL-2 melanoma = tested on: SK-MEL-2 melanoma

CC(C)CC(=O)O[C@H]1C(=O)O[C@@H]2C[C@H]3[C@H](C)C(=O)C(O[C@@H]4O[C@H](CO)[C@@H](O)[C@H](O)[C@H]4O)=C[C@]3(C)[C@H]3[C@@H](O)[C@H](O)[C@]4(C(=O)O)OC[C@]32[C@@H]14
> 100 µM: TGI (786-0 renal) | TGI (A498 renal) | TGI (A549 NSCLC) | TGI (ACHN renal) | TGI (BT-549 breast) | TGI (COLO 205 colon) | TGI (DU-145 prostate) | TGI (EKVX NSCLC) | TGI (HCT-116 colon) | TGI (HCT-15 colon) | TGI (HL-60(TB) leukemia) | TGI (HOP-62 NSCLC) | TGI (HOP-92 NSCLC) | TGI (HS 578T breast) | TGI (HT29 colon) | TGI (IGROV1 ovarian) | TGI (K-562 leukemia) | TGI (KM12 colon) | TGI (LOX IMVI melanoma) | TGI (M14 melanoma) | TGI (MCF7 breast) | TGI (MDA-MB-231 breast) | TGI (MDA-MB-435) | TGI (MDA-N) | TGI (MOLT-4 leukemia) | TGI (NCI-H23 lung) | TGI (NCI-H460 lung) | TGI (NCI/ADR-RES ovarian) | TGI (OVCAR-3 ovarian) | TGI (OVCAR-5 ovarian) | TGI (OVCAR-8 ovarian) | TGI (PC-3 prostate) | TGI (SF-268 CNS) | TGI (SK-MEL-28 melanoma) | TGI (SK-MEL-5 melanoma) | TGI (SK-OV-3 ovarian) | TGI (SN12C renal) | TGI (SNB-19 CNS) | TGI (SNB-75 CNS) | TGI (SR leukemia) | TGI (SW-620 colon) | TGI (T-47D breast) | TGI (TK-10 renal) | TGI (U251 CNS) | TGI (UACC-257 melanoma) | TGI (UACC-62 melanoma) | TGI (UO-31 renal)
53.3 µM: TGI (SF-539 CNS)
56.3 µM: TGI (MALME-3M melanoma)
92 µM: TGI (NCI-H226 lung)
54.4 µM: TGI (HCC-2998 colon)
38.7 µM: TGI (RXF 393 renal)
inactive: GI50 (786-0 renal) > 100 µM | GI50 (A498 renal) > 100 µM | GI50 (A549 NSCLC) 42.1 µM | GI50 (ACHN renal) > 100 µM | GI50 (CCRF-CEM leukemia) 24.7 µM | GI50 (COLO 205 colon) > 100 µM | GI50 (DU-145 prostate) > 100 µM | GI50 (EKVX NSCLC) > 100 µM | GI50 (HCC-2998 colon) 20.6 µM | GI50 (HCT-116 colon) 32.8 µM | GI50 (HCT-15 colon) > 100 µM | GI50 (HL-60(TB) leukemia) 41.3 µM | GI50 (HOP-62 NSCLC) 44.7 µM | GI50 (HOP-92 NSCLC) 37 µM | GI50 (HS 578T breast) 39.8 µM | GI50 (HT29 colon) 34 µM | GI50 (IGROV1 ovarian) 35.4 µM | GI50 (K-562 leukemia) 24 µM | GI50 (LOX IMVI melanoma) 38.7 µM | GI50 (MALME-3M melanoma) 22.8 µM | GI50 (MCF7 breast) 28 µM | GI50 (MDA-MB-231 breast) > 100 µM | GI50 (MOLT-4 leukemia) 18.9 µM | GI50 (NCI-H226 lung) 29.2 µM | GI50 (NCI-H460 lung) 27.5 µM | GI50 (NCI/ADR-RES ovarian) > 100 µM | GI50 (OVCAR-3 ovarian) 36.4 µM | GI50 (OVCAR-8 ovarian) > 100 µM | GI50 (RXF 393 renal) 10.8 µM | GI50 (SF-268 CNS) > 100 µM | GI50 (SF-539 CNS) 20.5 µM | GI50 (SK-MEL-28 melanoma) 25.2 µM | GI50 (SK-MEL-5 melanoma) 28.4 µM | GI50 (SN12C renal) > 100 µM | GI50 (SNB-19 CNS) 31.9 µM | GI50 (SR leukemia) 33.6 µM | GI50 (SW-620 colon) > 100 µM | GI50 (U251 CNS) 31.7 µM | GI50 (UACC-257 melanoma) > 100 µM
83.6 µM: TGI (CCRF-CEM leukemia)

O=c1oc2cc(O)ccc2c(O)c1C(c1ccc(/C=C/c2ccccc2)cc1)c1c(O)c2ccc(O)cc2oc1=O
64.1 µM: TGI (MOLT-4 leukemia)
> 100 µM: TGI (786-0 renal) | TGI (A498 renal) | TGI (A549 NSCLC) | TGI (ACHN renal) | TGI (BT-549 breast) | TGI (CAKI-1 renal) | TGI (CCRF-CEM leukemia) | TGI (COLO 205 colon) | TGI (DU-145 prostate) | TGI (EKVX NSCLC) | TGI (HCC-2998 colon) | TGI (HCT-116 colon) | TGI (HCT-15 colon) | TGI (HOP-62 NSCLC) | TGI (HOP-92 NSCLC) | TGI (HS 578T breast) | TGI (HT29 colon) | TGI (IGROV1 ovarian) | TGI (K-562 leukemia) | TGI (KM12 colon) | TGI (LOX IMVI melanoma) | TGI (M14 melanoma) | TGI (MALME-3M melanoma) | TGI (MCF7 breast) | TGI (MDA-MB-231 breast) | TGI (MDA-MB-435) | TGI (MDA-N) | TGI (NCI-H226 lung) | TGI (NCI-H23 lung) | TGI (NCI-H460 lung) | TGI (NCI-H522 lung) | TGI (NCI/ADR-RES ovarian) | TGI (OVCAR-3 ovarian) | TGI (OVCAR-4 ovarian) | TGI (OVCAR-5 ovarian) | TGI (OVCAR-8 ovarian) | TGI (PC-3 prostate) | TGI (RPMI-8226 leukemia) | TGI (RXF 393 renal) | TGI (SF-268 CNS) | TGI (SF-295 CNS) | TGI (SF-539 CNS) | TGI (SK-MEL-2 melanoma) | TGI (SK-OV-3 ovarian) | TGI (SN12C renal) | TGI (SNB-19 CNS) | TGI (SNB-75 CNS) | TGI (SW-620 colon) | TGI (T-47D breast) | TGI (TK-10 renal) | TGI (U251 CNS) | TGI (UACC-257 melanoma) | TGI (UACC-62 melanoma) | TGI (UO-31 renal)
60.5 µM: TGI (SK-MEL-28 melanoma)
95 µM: TGI (SK-MEL-5 melanoma)
69.6 µM: TGI (HL-60(TB) leukemia)

From PubChem BioAssay (NCI)
